In paper PMC10077475, “DG9-conjugated morpholino rescues phenotype in SMA mice by reaching the CNS via a subcutaneous administration” (JCI Insight, 2023):

How the values were obtained:
severe SMA mouse model [1] = test: Hind limb suspension (HLS) assay (tube test); type: in vivo; settings: 40 mg/kg s.c. at PD0, PD2–PD12
Text: To evaluate the effects of systemic DG9-PMO treatment on muscle strength and the function of motor neurons, we used several functional tests and compared motor function in the treated and NT mice at various time points. We performed the hind limb suspension (HLS) assay and the righting reflex test during the early weeks of life. […] It should be noted that the results beyond PD12 are biased, as only the healthiest unconjugated PMO–, MOE-, and R6G-PMO–treated mice survived to these time points.
This test was performed on neonatal mice PD2–PD12 as described in Treat NMD protocol SMA_M.2.2.001 ([72]). Briefly, neonatal mice were suspended on their hind limbs from a tube. They were scored based on the position of the hind limbs and their latency to fall was recorded with a 30-second cutoff. Each neonatal pup underwent 3 trials, with a 15-minute break between each trial. The average score was noted by the observer under a blinded test protocol.

severe SMA mouse model [2] = test: Forelimb grip strength; type: in vivo; settings: 40 mg/kg s.c. at PD0, normalized to body weight
Protocol: This improvement was further bolstered by the forelimb grip strength assessment at PD30 in the DG9-PMO–treated mice (Figure 1E and Supplemental Figure 2A). […] We evaluated the relationship between the forelimb data and the sex at PD30. […] We also performed a rotarod test PD30 for the 40 mg/kg groups to assess their overall muscle coordination and balance ([41]). We observed that although the unconjugated PMO–treated mice had reduced forelimb grip strength, they were able to balance themselves on the rotating beam similar to DG9-PMO–treated mice owing to their smaller size and weight (Supplemental Figure 2C). Since we had only 2 MOE mice in this experiment, they were not included in the statistics. Taken together, based on conclusive findings from these functional tests, systemic injection of DG9-PMO improves motor function and muscle strength in both neonatal and adult SMA mice.
This assay was conducted as described in Treat NMD protocol SMA_M.2.1.002 ([73]). In short, the mouse is placed on the wire mesh of an automated grip strength meter (Columbus Instruments) such that only the front paws are allowed to grip the metal grid. The mouse is steadily pulled with the help of its tail, such that it lets go of the grid completely. PD30 and PD60 mice were used. Each mouse underwent 3 trials.

severe SMA mouse model [3] = test: Body weight of SMA mice at PD7; type: in vivo
Protocol: Injections were carried out using a 30-gauge Hamilton syringe. SMA mice identified following genotyping were randomly assigned to a treatment group. The researcher injecting mice was blinded to the treatment. SMA neonates were subcutaneously injected with 40 or 80 mg/kg of AOs at PD0, while NT and heterozygous control mice were injected with saline (n = 10–49) per group. Tissues including the quadriceps muscle, liver, kidney, spleen, diaphragm, intercostal muscle, heart, brain, and spinal cord were collected and snap-frozen in dry ice– cooled isopentane, then subsequently stored at –80°C.

SMN2 (ISS-N1 intron 7) = test: FL-SMN2 expression relative to Δ7 SMN2 transcripts by RT-qPCR in tissues of severe SMA mice; type: in vivo, mouse; settings: both doses (40 and 80 mg/kg s.c. at PD0), tissues at PD7, peripheral and CNS tissues, RT-qPCR ΔΔCt
Protocol: To evaluate the change of FL-SMN2 expression relative to Δ7 SMN2 transcripts, we used real-time quantitative PCR (RT-qPCR) at PD7; the mice were treated with DG9-PMO at PD0. In both doses, DG9-PMO treatment led to a 4- to 30-fold higher FL-SMN2 expression than NT control in both peripheral and CNS tissues (Figure 2A and Supplemental Figure 3A). It also led to a ~5-fold increase in FL-SMN2 expression when compared with unconjugated PMO, MOE, and R6G-PMO treatments in the majority of the tissues (Figure 2A, Supplemental Figure 3A, and Supplemental Figure 1F). […] SMN levels were higher in CNS tissues in the DG9-PMO–treated than MOE-treated mice, though no statistical significance was seen. […] SMN levels were similar in DG9-PMO and MOE in the tissues collected from mice at PD30.
Injections were carried out using a 30-gauge Hamilton syringe. SMA mice identified following genotyping were randomly assigned to a treatment group. […]
Frozen tissues harvested at PD7 were sectioned using a cryostat (Leica CM 1950) into 20 μm sections. […] The relative gene expression for FL-SMN2 over the deletion of SMN2 transcripts without exon 7 was normalized to the NT control samples and analyzed using the ΔΔCt method. The expression of denervation markers relative to 18S was normalized to the healthy heterozygous control samples collected at PD30 and analyzed using the ΔΔCt method.

[4] = Toxicology: serum markers, urinary KIM-1, liver and kidney histology; type: in vivo, mouse
Protocol: To further elucidate the possibility of long-term toxicity, we collected serum from the Hets and AO-treated mice at PD30–PD35. A toxicological evaluation was performed on the levels of alkaline phosphatase (ALP), alanine transaminase (ALT), aspartate aminotransferase (AST), creatine kinase (CK), creatinine, total bilirubin, total protein, albumin, globulin, and gamma-glutamyl transferase (GGT). […] We also performed a qualitative histological analysis of the liver and kidney and found no signs of observable toxicity (Supplemental Figure 9D). We also analyzed levels of urinary kidney injury marker-1 (KIM-1) following DG9-PMO treatment at both 40 and 80 mg/kg.
Blood was collected from the mice around PD30–PD40 (n = 4–10 per group) during the dissection procedure. The blood was left at RT for 30 minutes and centrifuged at 2,000 rcf. The resulting supernatant (serum) was transferred to a new 1.5 mL tube and stored at –20 °C. The serum samples were analyzed by IDEXX BioAnalytics. The evaluation was performed on a standard set of toxicity markers: glucose, total bilirubin, blood urea nitrogen, CK, creatinine, ALP, ALT, AST, GGT, globulin, albumin, and total protein. Urinary KIM-1 analysis was performed from urine collected from mice at PD30. The collected urine was centrifuged at 2,000 rcf at 4°C. […]

CC(=O)N[C@@H](Cc1ccc(O)cc1)C(=O)N[C@@H](C)C(=O)N[C@H](CCCNC(=N)N)C(=O)N[C@H](C(=O)N[C@@H](CCCNC(=N)N)C(=O)N[C@@H](CCCNC(=N)N)C(=O)N[C@H](CCCNC(=N)N)C(=O)NCC(=O)N1CCC[C@H]1C(=O)N[C@@H](CCCNC(=N)N)C(=O)NCC(=O)N[C@@H](Cc1ccc(O)cc1)C(=O)N[C@@H](C)C(=O)N[C@H](CCCNC(=N)N)C(=O)N[C@H](C(=O)N[C@@H](CCCNC(=N)N)C(=O)N[C@@H](CCCNC(=N)N)C(=O)N[C@H](CCCNC(=N)N)C(=O)NCC(=O)N1CCC[C@H]1C(=O)N[C@@H](CCCNC(=N)N)C(=O)N[C@H](CCCNC(=N)N)C(=O)N1C[C@@H](COP(=O)(N(C)C)N2C[C@@H](COP(=O)(N(C)C)N3C[C@@H](COP(=O)(N(C)C)N4C[C@@H](COP(=O)(N(C)C)N5C[C@@H](COP(=O)(N(C)C)N6C[C@@H](COP(=O)(N(C)C)N7C[C@@H](COP(=O)(N(C)C)N8C[C@@H](COP(=O)(N(C)C)N9C[C@@H](COP(=O)(N(C)C)N%10C[C@@H](COP(=O)(N(C)C)N%11C[C@@H](COP(=O)(N(C)C)N%12C[C@@H](COP(=O)(N(C)C)N%13C[C@@H](COP(=O)(N(C)C)N%14C[C@@H](COP(=O)(N(C)C)N%15C[C@@H](COP(=O)(N(C)C)N%16C[C@@H](COP(=O)(N(C)C)N%17C[C@@H](COP(=O)(N(C)C)N%18C[C@@H](COP(=O)(N(C)C)N%19CCC(C(N)=O)CC%19)O[C@@H](n%19cc(C)c(=O)[nH]c%19=O)C%18)O[C@@H](n%18ccc(N)nc%18=O)C%17)O[C@@H](n%17cnc%18c(N)ncnc%18%17)C%16)O[C@@H](n%16ccc(N)nc%16=O)C%15)O[C@@H](n%15cc(C)c(=O)[nH]c%15=O)C%14)O[C@@H](n%14cc(C)c(=O)[nH]c%14=O)C%13)O[C@@H](n%13cc(C)c(=O)[nH]c%13=O)C%12)O[C@@H](n%12ccc(N)nc%12=O)C%11)O[C@@H](n%11cnc%12c(N)ncnc%12%11)C%10)O[C@@H](n%10cc(C)c(=O)[nH]c%10=O)C9)O[C@@H](n9cnc%10c(N)ncnc%109)C8)O[C@@H](n8cnc9c(N)ncnc98)C7)O[C@@H](n7cc(C)c(=O)[nH]c7=O)C6)O[C@@H](n6cnc7c(=O)[nH]c(N)nc76)C5)O[C@@H](n5ccc(N)nc5=O)C4)O[C@@H](n4cc(C)c(=O)[nH]c4=O)C3)O[C@@H](n3cnc4c(=O)[nH]c(N)nc43)C2)O[C@@H](n2cnc3c(=O)[nH]c(N)nc32)C1)C(C)C)C(C)C (stereo partly shown) [DG9-PMO]
hind limb strength (HLS score) (severe SMA mouse model [1]): hind limb strength comparable to the Hets at PD12 | forelimb grip force at PD30 (severe SMA mouse model [2]): forelimb grip force comparable to the Hets and significantly higher than the unconjugated PMO– and MOE-treated mice | body weight at PD7 versus R6G-PMO (severe SMA mouse model [3]; 40 mg/kg s.c. at PD0): weighed significantly more than R6G-PMO–treated neonates | body weight at PD7 (severe SMA mouse model [3]; both doses (40 and 80 mg/kg) s.c. at PD0): significantly heavier than the NT and unconjugated PMO–treated littermates | FL-SMN2 expression (relative to Δ7 SMN2), fold higher than NT control (SMN2 (ISS-N1 intron 7)): 4- to 30 fold | urinary kidney injury marker-1 (KIM-1) compared to the Hets ([4]; 40 and 80 mg/kg, urine at PD30, sandwich ELISA): no apparent increase | toxicity on the liver and kidney ([4]; as high as 80 mg/kg dose): no apparent toxicity
